Results taken from patent US9044491B2, “Method for improving blood flow using stilbenoid derivatives” (The Board of Trustees of the University of Arkansas, priority 2010, dated 2015).

How the values were obtained:
CLP mice [1] = assay: Serum creatinine and blood urea nitrogen after CLP; type: in vivo, mouse
Procedure: Acute Kidney Injury (AKI) is accompanied by elevated blood urea nitrogen levels, elevated creatinine levels, and low blood pressure. Serum creatinine and blood urea nitrogen (BUN) were measured using the QuantiChrom® Creatinine Assay kit and Urea Assay Kit (BioAssay Systems, Hayward Calif.).

[2] = system: cecal ligation and puncture model (CLP) of sepsis-induced renal injury; assay: Murine CLP model of sepsis, tRes 30 mg/kg (Example 5); type: in vivo, mouse; settings: 30 mg/kg i.p. 30 min prior to and 6 hr post CLP; 18 hr post CLP
Text: Control (sham) mice underwent surgery but not CLP. Each treatment group contained 4-5 mice. Renal ONOO^− generation (rhodamine fluorescence) and renal peritubular capillary perfusion were quantified using intravital video microscopy (IVVM) on anesthetized mice in each of the treatment groups.

[3] = system: cecal ligation and puncture model (CLP); assay: RNS generation in renal tubules after CLP (rhodamine IVVM, anti-nitrotyrosine staining); type: in vivo, mouse; settings: for rhodamine fluorescence (RNS generation in renal tubules): 18 hours after CLP
Procedure: The reactive nitrogen species peroxynitrite preferentially oxidizes DHR to fluorescent rhodamine that is visualized at 535 nm excitation and 590 nm emission. Still images exposed for 500 ms were captured from fields of view used to determine capillary perfusion. Fluorescence intensity was measured by ImageJ (National Institutes of Health, Bethesda, Md.) after first subtracting background fluorescence intensity. Representative images of fluorescence are shown in FIG. 10, panels (A)-(C), and the quantification of fluorescence is shown in FIG. 10 panel D. Data are expressed as arbitrary units/μg. CLP increased the generation of RNS in the renal tubules compared to Control (Sham). […] Antigens were unmasked using 10 mM citrate (pH 6.0) and 95° C. for 30 min. Gill's hematoxylin II was used as a counterstain. […] FIG. 12 (E)-(G) show nitrotyrosine staining. After CLP, nitrotyrosine was intense in renal tubules but not in glomeruli. Two doses of tRes blocked formation of nitrotyrosine adducts.

CB1 receptors = type: biochemical, mouse; settings: 10 μM compound, 30 min at 30° C.
CLP mice [4] = assay: Survival study after CLP; type: in vivo, mouse; settings: 10 mg/kg at 6, 12, and 18 hours following CLP, monitored for 48 h
[5] = system: cecal ligation and puncture model (CLP) of sepsis-induced renal injury; assay: Renal microcirculation after CLP by intravital video microscopy; type: in vivo, mouse; settings: for capillary perfusion / RBC velocity / volumetric blood flow: 18 hours after CLP
Procedure: Control (sham) mice underwent surgery but not CLP. Fresh solutions of tRes were prepared in dimethyl sulfoxide as the vehicle (veh) and diluted in normal saline before use. Dextran and […] were administered to the penile vein to visualize the capillary vascular space and detect RNS generation, respectively. The left kidney was exposed by a flank incision and positioned on a glass stage with a fluorescent microscope equipped with an Axiocam HSm camera. Intravital Video Microscopy (IVVM) of 10 s intervals at 200× magnification were acquired from randomly selected, non-overlapping fields of view. Capillaries were randomly selected for the 10 sec videos and categorized as “continuous flow” where red blood cell (RBC) movement was continuous; “intermittent flow” where RBC movement stopped or reversed; or “no flow” where no RBC movement was detected as shown in FIG. 8. RBC velocity was calculated in continuously flowing capillaries by measuring the distance traveled by a single RBC over time, expressed in μm/s.

human UGT1A10 = target: T1, human UGT1A10 (Homo sapiens, UniProt Q9HAW8); settings: 250 μM
T1 sequence (Q9HAW8 26-530): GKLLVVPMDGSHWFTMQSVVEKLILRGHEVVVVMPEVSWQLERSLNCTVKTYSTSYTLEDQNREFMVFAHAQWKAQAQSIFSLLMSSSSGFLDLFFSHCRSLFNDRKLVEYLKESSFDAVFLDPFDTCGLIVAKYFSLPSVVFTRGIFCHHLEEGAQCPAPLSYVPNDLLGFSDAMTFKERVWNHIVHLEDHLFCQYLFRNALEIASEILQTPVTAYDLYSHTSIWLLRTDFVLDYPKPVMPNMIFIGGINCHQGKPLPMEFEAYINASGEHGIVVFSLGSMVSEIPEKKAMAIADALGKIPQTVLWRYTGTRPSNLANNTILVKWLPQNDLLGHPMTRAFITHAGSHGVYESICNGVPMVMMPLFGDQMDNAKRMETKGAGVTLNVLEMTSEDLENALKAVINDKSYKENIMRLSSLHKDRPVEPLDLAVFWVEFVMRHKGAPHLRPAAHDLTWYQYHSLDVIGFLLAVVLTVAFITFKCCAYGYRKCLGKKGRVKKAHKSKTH
Procedure: Eight human recombinant UGT1A isoforms (UGT1A1, 1A3, 1A4, 1A6, 1A7, 1A8, 1A9, and 1A10; 5 μg) expressed as His-tag proteins in baculovirus-infected Sf9 insect cells and human liver microsomes (from one donor; HL2; 50 μg) and human intestinal microsomes (from two donors; HI36 and HI41; 50 μg) were evaluated for their ability to glucuronidate these four compounds. The concentrations of the substrate and co-substrate (i.e., UDP-GlcUA) were 250 μM and 4 mM, respectively. Glucuronidation products were analyzed by HPLC and LCMS/MS.
The kinetic constants of the glucuronidation reactions using recombinant human UGT1A1 and UGT1A10 were determined by measuring the enzyme activity in the presence of increasing concentrations of substrate (see FIG. 2).

CLP mice [6] = assay: Histology of renal tissue (PAS staining) after CLP; type: in vivo, mouse; settings: two-dose regimen
Text: Renal tissue was also stained with periodic acid-Schiff staining to show the amount of injury to the tissue. The periodic acid-Schiff (PAS) stained sections were scored in a blinded, semi-quantitative manner. For each animal, at least 10 high power (400×) fields were examined. […] Representative PAS-stained sections are shown in FIG. 15, panels (A)-(C) 200× magnification and the tissue scores are shown in (D). CLP caused mild morphological changes characterized by […], cast formation, vacuolization, and tubule dilation. These changes were prevented by the two-dose regimen of tRes.

CLP mice [7] = assay: Systemic serum nitric oxide levels after CLP; type: in vivo, mouse; settings: CLP mice at 18 hours, two doses
Procedure: Serum nitrate and […] were determined using the Total Nitric Oxide Assay Kit (Assay Designs, Ann Arbor, Mich.) as directed by the manufacturer. Data were expressed as serum nitrate+nitrate concentration in […].

[8] = 10 mg/kg administered 6 hours after CLP surgery, single dose
[9] = at 6 hours after CLP, administration at 5.5 hours

## Oc1ccc(/C=C/c2cc(O)cc(O)c2)cc1 [tRes, trans-resveratrol]
CLP mice [1]; [8]
  BUN levels: not
  serum creatinine levels: significantly reduced
CLP mice [1]; additional dose given at 12 h
  BUN levels: significant reduction
  serum creatinine levels: significant reduction
[2]
  RNS generation in the kidney: blocked
  renal capillary perfusion: preserved
[3]; second dose at 12 hours
  rhodamine fluorescence (RNS generation in renal tubules): completely blocked
[3]; single dose at 6 hours
  rhodamine fluorescence (RNS generation in renal tubules): partially, but significantly reduced
[3]; CLP, two doses
  formation of nitrotyrosine adducts: blocked
CB1 receptors
  basal G-protein activity: little effect
CLP mice [4]
  survival in CLP mice: significantly improve survival
[5]; 10 mg/kg at 6 hours and second dose at 12 hours
  capillary perfusion: prevented the change
[5]; additional dose at 12 hours
  RBC velocity: complete restoration
  volumetric blood flow: complete restoration
[5]; single dose
  RBC velocity: did not improve
  volumetric blood flow: did not improve
[5]; single dose 10 mg/kg at 6 hours
  capillary perfusion: unable to maintain perfusion
[5]; at 6 h after CLP
  mean RBC velocity: improved
  renal capillary volumetric blood flow: improved
[5]; [9]
  most efficacious dose for capillary perfusion: 10 mg/kg
  renal cortical peritubular capillary perfusion: improved perfusion in a dose dependent manner
Human UGT1A10
  glucuronide formation by UGT1A10: glucuronidated to 3-O— and 4′-O-Glucs
CLP mice [6]
  CLP-induced morphological changes of renal tissue (PAS): prevented
CLP mice [7]
  serum nitrate+nitrate concentration: did not affect
